Consider twelve compounds from ChEMBL document CHEMBL1201862, “PubChem BioAssay data set” (2004).

SMILES strings stand for the structures.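 Assay format: 96-well plates, 48-hour exposure. Here, GI50 denotes the concentration required for 50% inhibition of growth.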 Calls of active or inactive are those of the source. Rule as the data show it: active = GI50 up to about 1.1 µM and inactive = higher.

Among the test systems are 786-0; A498; HCT-116; HT-29; Hs-578T; IGROV-1; LOX IMVI; NCI-H23; NCI-H522; NCI/ADR-RES; OVCAR-3; PC-3; RPMI-8226; SF-268; SF-295; SK-MEL-28; SN12C; UACC-62; XF498; SNB-78.
Experiment in all cases: NCI tumour cell line growth inhibition, 48 h

Consider `CC(C)(C)c1ccc(CN2CCN(C(c3ccccc3)c3ccc(Cl)cc3)CC2)cc1` (stereo not drawn), for which the GI50 with 786-0 is 42.4 µM (inactive); in the test on A498 it was > 100 µM (inactive); in the test on HCT-116, 25.7 µM (inactive); in the test on HT-29 it was 20.3 µM (inactive); in the test on Hs-578T, > 100 µM (inactive); with IGROV-1, > 100 µM (inactive). In addition, the GI50 in the test on LOX IMVI was 34.4 µM (inactive); in the test on NCI-H23 it was 83.6 µM (inactive); in the test with NCI-H522 it was 23.4 µM (inactive); in the test with NCI/ADR-RES it was > 100 µM (inactive); in the test with OVCAR-3, 58.7 µM (inactive); in the test with PC-3, 57.3 µM (inactive). Besides, the GI50 was 33.3 µM (inactive) in the test on RPMI-8226; 77.6 µM (inactive) in the test on SF-268; 37.9 µM (inactive) in the test on SF-295; 65.5 µM (inactive) with SK-MEL-28; > 100 µM (inactive) with SN12C; > 100 µM (inactive) with UACC-62.
Consider `N=c1oc2cc(O)ccc2cc1C(=O)Nc1ccccn1`, for which the GI50 in the test with 786-0 is 16.4 µM (inactive); with A498, 24.7 µM (inactive); with HCT-116, 56.1 µM (inactive); in the test with HT-29 it was 29.7 µM (inactive); with Hs-578T, > 100 µM (inactive); in the test with IGROV-1, 44.9 µM (inactive). Also, the GI50 in the test on LOX IMVI was 34.4 µM (inactive); with NCI-H23, 80.9 µM (inactive); in the test with NCI-H522 it was 3.43 µM (inactive); in the test on NCI/ADR-RES it was 48.8 µM (inactive); in the test with OVCAR-3, 72.4 µM (inactive); in the test with PC-3 it was 40.1 µM (inactive). Further, the GI50 was 33.7 µM (inactive) with RPMI-8226; 65.2 µM (inactive) in the test with SF-268; > 100 µM (inactive) with SF-295; 76.7 µM (inactive) with SK-MEL-28; 62.2 µM (inactive) in the test with SN12C; 32.4 µM (inactive) in the test on UACC-62.
In the case of `CCOC(=O)C(=O)Nc1ccccc1C(C)C`, the GI50 in the test with 786-0, with A498, in the test on HCT-116, in the test on HT-29, in the test on IGROV-1 and in the test with NCI-H23 was > 100 µM (inactive) each time. Besides, the GI50 in the test on NCI-H522, in the test on OVCAR-3, in the test on RPMI-8226, with SF-268, with SF-295 and with SK-MEL-28 was > 100 µM (inactive) throughout. The GI50 in the test with SN12C, with UACC-62 and in the test on XF498 was > 100 µM (inactive) each time.
In the case of `C1=C2/CC[C@H](Sc3ccccc3)[C@H]2C2(CCCCC/1)OCCO2`, the GI50 in the test with 786-0 is 40.2 µM (inactive); in the test with HCT-116, 39.8 µM (inactive); in the test on HT-29 it was 34.6 µM (inactive); in the test with IGROV-1, 54.7 µM (inactive); in the test with LOX IMVI, 18.7 µM (inactive); with NCI-H23, 34.8 µM (inactive). Also, the GI50 in the test with NCI-H522 is 17.9 µM (inactive); in the test on OVCAR-3 it was 27.7 µM (inactive); in the test with RPMI-8226 it was 24.4 µM (inactive); in the test with SF-268, 82.8 µM (inactive); in the test on SF-295, 37.8 µM (inactive); with SK-MEL-28, > 100 µM (inactive). For the same compound, the GI50 in the test with SN12C is > 100 µM (inactive); with SNB-78, 94 µM (inactive); with UACC-62 it was 19.6 µM (inactive).
For the compound `O=[N+]([O-])/C=C1\COCc2cc3c(cc21)OCO3`, the GI50 with 786-0 was 19.3 µM (inactive); in the test with A498 it was 18.8 µM (inactive); in the test on HCT-116, 21.2 µM (inactive); in the test with HT-29, 25.1 µM (inactive); with Hs-578T, 26.9 µM (inactive); in the test on IGROV-1, 35.6 µM (inactive). The GI50 with LOX IMVI is 27.2 µM (inactive); in the test with NCI-H23 it was 12.1 µM (inactive); with NCI-H522 it was 20.7 µM (inactive); in the test with NCI/ADR-RES it was 18 µM (inactive); in the test on OVCAR-3, 16.8 µM (inactive); in the test on PC-3 it was 12.3 µM (inactive). The GI50 in the test with RPMI-8226 is 21.7 µM (inactive); in the test with SF-268, 27.2 µM (inactive); in the test with SF-295, 44 µM (inactive); in the test on SK-MEL-28 it was 17.5 µM (inactive); in the test with SN12C it was 22.5 µM (inactive); in the test with UACC-62 it was 21.1 µM (inactive).
With `CC1=CP(=O)(OC(C)C)CC(C)=C1Cl` (stereo not drawn), the GI50 is > 100 µM (inactive) in the test with 786-0; > 100 µM (inactive) with A498; > 100 µM (inactive) with HCT-116; 64.4 µM (inactive) in the test with HT-29; > 100 µM (inactive) in the test with IGROV-1; > 100 µM (inactive) in the test on LOX IMVI. The GI50 was > 100 µM (inactive) in the test with NCI-H23; 52.6 µM (inactive) in the test with NCI-H522; > 100 µM (inactive) in the test with OVCAR-3; 94.8 µM (inactive) in the test on RPMI-8226; 82.6 µM (inactive) in the test with SF-268; > 100 µM (inactive) with SF-295. Besides, the GI50 in the test on SK-MEL-28, with SN12C, with SNB-78 and in the test with UACC-62 was > 100 µM (inactive) in each case.
As for `Brc1cc2c(cc1C1SCCS1)OCO2`, the GI50 in the test with 786-0 is > 100 µM (inactive); in the test with A498, > 100 µM (inactive); in the test on HCT-116 it was > 100 µM (inactive); with HT-29 it was > 100 µM (inactive); in the test with IGROV-1 it was > 100 µM (inactive); with LOX IMVI it was 81.7 µM (inactive). Besides, the GI50 is > 100 µM (inactive) in the test on NCI-H23; > 100 µM (inactive) with NCI-H522; > 100 µM (inactive) in the test on OVCAR-3; 89.5 µM (inactive) with RPMI-8226; > 100 µM (inactive) in the test on SF-268; > 100 µM (inactive) with SF-295. Besides, the GI50 in the test with SK-MEL-28, in the test with SNB-78 and in the test on UACC-62 was > 100 µM (inactive) each time.
In the case of `COC(=O)C1=CC2C=CC(C1C(=O)OC)C1C(C(=O)OC)=C(C(=O)OC)C(C(=O)OC)=C(C(=O)OC)C21OC` (stereo not drawn), the GI50 in the test on 786-0, in the test on A498, in the test with HCT-116, in the test on HT-29, in the test on IGROV-1 and with LOX IMVI was > 100 µM (inactive) each time. Moreover, the GI50 with NCI-H23, in the test on NCI-H522, in the test with OVCAR-3, in the test with RPMI-8226, in the test on SF-268 and in the test on SF-295 was > 100 µM (inactive) each time. Besides, the GI50 with SK-MEL-28, in the test with SN12C, in the test on SNB-78 and with UACC-62 was > 100 µM (inactive) in each case.
`COc1ccc2nc3ccc(OC)cc3c(SCCCl)c2c1`: the GI50 in the test with 786-0 is 6.24 µM (inactive); with A498, 31.1 µM (inactive); in the test with HCT-116, 6.22 µM (inactive); in the test on HT-29, 8.28 µM (inactive); in the test on Hs-578T, 5.07 µM (inactive); in the test on IGROV-1, 5.09 µM (inactive). Moreover, the GI50 in the test on LOX IMVI is 5.98 µM (inactive); with NCI-H23, 16 µM (inactive); in the test with NCI-H522, 3.03 µM (inactive); in the test on NCI/ADR-RES, 16.3 µM (inactive); in the test on OVCAR-3, 18.2 µM (inactive); with PC-3, 22.6 µM (inactive). Moreover, the GI50 in the test with RPMI-8226 was 2.95 µM (inactive); with SF-268, 12 µM (inactive); with SF-295, 26.2 µM (inactive); in the test with SK-MEL-28, 31.7 µM (inactive); with SN12C it was 12.2 µM (inactive); in the test with UACC-62, 19.5 µM (inactive).
As to `COc1cc2c[n+](C)c3c(c2cc1OC)Cc1cc2c(cc1-3)OCO2`, the GI50 with 786-0, with A498, in the test on HCT-116, with HT-29, in the test on Hs-578T and with IGROV-1 was > 100 µM (inactive) in each case. For the same compound, the GI50 in the test on LOX IMVI is > 100 µM (inactive); in the test with NCI-H23, > 100 µM (inactive); with NCI-H522, 52.4 µM (inactive); in the test with NCI/ADR-RES, > 100 µM (inactive); in the test on OVCAR-3 it was > 100 µM (inactive); in the test with PC-3 it was > 100 µM (inactive). Also, the GI50 with RPMI-8226 was 65 µM (inactive); in the test with SF-268, > 100 µM (inactive); with SF-295, > 100 µM (inactive); in the test on SK-MEL-28, > 100 µM (inactive); in the test on SN12C, > 100 µM (inactive); with UACC-62, > 100 µM (inactive).
For the compound `COC1=CC(=O)c2c(c(-c3nc(C)cs3)cn2C)C1=O`, the GI50 in the test on 786-0 was 18.1 µM (inactive); in the test on A498 it was 5.82 µM (inactive); with HCT-116, 2.99 µM (inactive); with HT-29 it was 4.98 µM (inactive); in the test with Hs-578T it was 2.21 µM (inactive); in the test with IGROV-1, 4.29 µM (inactive). In addition, the GI50 in the test on LOX IMVI was 0.804 µM (active); in the test with NCI-H23, 2.25 µM (inactive); with NCI-H522, 1.06 µM (active); with NCI/ADR-RES it was 4 µM (inactive); in the test with OVCAR-3 it was 1.75 µM (inactive); with PC-3 it was 5.96 µM (inactive). In addition, the GI50 in the test with RPMI-8226 was 2.52 µM (inactive); in the test with SF-268 it was 6.44 µM (inactive); in the test with SF-295, 2.88 µM (inactive); in the test with SK-MEL-28, 3.72 µM (inactive); in the test with SN12C, 5.79 µM (inactive); with UACC-62 it was 2.99 µM (inactive).
Turning to `CC[C@H]1C=CCC[C@@]2(C[C@@H]3CC[C@@H]4[C@H](C(=O)OCCCCCCCCCCCCCCCC(=O)O)[C@]5(CCC[C@@H](C)O5)NC(=[N+]34)N2)O1` [CRAMBESCIDIN 657], the GI50 in the test with 786-0 was 0.0964 µM (active); with A498, 0.306 µM (active); in the test on HCT-116, 0.169 µM (active); in the test on HT-29 it was 0.116 µM (active); in the test on Hs-578T, 0.571 µM (active); in the test with IGROV-1, 0.193 µM (active). For the same compound, the GI50 with LOX IMVI is 0.12 µM (active); in the test on NCI-H23, 0.488 µM (active); with NCI-H522, 0.131 µM (active); in the test with NCI/ADR-RES, 4.61 µM (inactive); with OVCAR-3, 0.301 µM (active); with PC-3, 0.1 µM (active). The GI50 in the test on RPMI-8226 is 0.109 µM (active); in the test with SF-268, 0.367 µM (active); in the test on SF-295 it was 0.163 µM (active); in the test on SK-MEL-28 it was 0.743 µM (active); in the test on SN12C, 0.418 µM (active); in the test on UACC-62, 0.0927 µM (active).
